“Also recorded” adds a separate entry of the source. Bridges are numbered along the chain shown (N, C = ends). Where no end group is shown, it is not given here. [ ]: non-standard residue; d: D form. Cit = NC(=O)NCCC[C@H](N)C(=O)O
Columns and labels:
[1] = system: serum IgG of RA patients, disease controls and healthy controls; assay: ELISA for IgG antibodies to cyclic α-enolase peptides, UK cohort sera; format: binding, human; details: for % positive, RA (n = 102): UK cohort RA sera; for % positive, RA (n = 102) / % positive, Healthy controls (n = 92) / % positive, Disease controls (n = 110): cut-off OD450 = 0.1; for % positive, Healthy controls (n = 92) / % positive, Disease controls (n = 110) / sensitivity for RA: UK cohort; for sensitivity for RA / IgG antibody levels / reactivity (OD450) in RA sera: 102 RA patients; for IgG antibody levels / reactivity (OD450) in RA sera: OD450 (peptide)-OD450 (background)
From the text: (§1) Serum samples were obtained with informed consent and ethical approval from 102 patients with RA and 92 (or 110 patients for the results generally shown in FIGS. 9 to 16) patients with other arthritidies (including systemic lupus erythematosus (n=32), Sjogrens syndrome (n=31), psoriatic arthritis (n=5), Behçet's syndrome (n=18; FIGS. 9 to 16) and miscellaneous other rheumatic diseases (n=24). 92 control serum samples were obtained from healthy volunteers. An additional cohort of 24 patients with RA undergoing treatment with either methotrexate (MTX) alone (n=13) or methotrexate in combination with Infliximab (INF) (n=11) were collected before treatment as well as 6, 18 and 52 weeks post treatment. Disease activity score (DAS 28), erythrocyte sedimentation rate (ESR) and C-reactive protein (CRP) were measured for each patient at the same time points, i.e. 0, 6, 18 an 52 weeks post treatment. All patients attended the Rheumatology Clinic at Charing Cross Hospital, London. An independent cohort from the US included serum samples from 81 RA patients, taken at baseline in a clinical trial at the Omaha Veterans Affairs Medical Centre, University of Nebraska, USA, and 82 serum samples from healthy volunteers. All RA patients met the American College of Rheumatology (ACR) classification criteria (43).
Fifteen cyclic 15 to 23-mer peptides were synthesised at Cambridge Research Biochemicals (Cleveland, UK). The peptide sequences corresponded to amino acid sequences in human α-enolase (SwissProt accession number P06733) or P. gingivalis enolase (SwissProt accession number AAQ66821), with the addition of cysteine residues at the amino- and carboxy-termini and the exchange of citrulline for arginine residues at certain positions, as shown in Tablet and Table 2 below.
(§2) 96-well plates (Maxisorp; Nunc, Roskilde, Denmark) were coated with α-enolase peptides at 10 μg/ml (diluted in a 50 mM carbonate buffer, pH 9.6), or with carbonate buffer alone, and incubated over night at 4° C. Wells were washed with PBS-Tween (0.05%) and blocked with 2% BSA (diluted in PBS) for 3 hours at room temperature. Sera were diluted 1:50 in RIA-buffer (10 mM Tris, 1% BSA, 350 mM NaCl, 1% Triton-X, 0.5% Na-deoxychlate, 0.1% SDS) supplemented with 10% FCS, added in duplicates and incubated for 1.5 hour at room temperature. Plates were washed as described above and incubated with peroxidase-conjugated mouse anti-human IgG (Hybridoma Reagent Laboratory, Baltimore, USA) (diluted 1:1000 in RIA-buffer, 10% FCS) for 1 hour at room temperature. After a final wash (PBS-Tween, 0.05%), bound antibodies were detected with TMB substrate (KPL, Maryland, USA). The reaction was stopped by the addition of 1M H2SO4 and absorbance measured at 450 nm in a Multiscan Ascent microplate reader (Thermo Labsystems). A control serum was included on all plates to correct for plate-to-plate variation. Background OD450 (wells coated with only carbonate buffer) was subtracted from peptide OD450 for every serum tested. Values above 0.1 were taken as positive. ELISA on the US serum samples were performed in a similar manner, but with 2% BSA in carbonate buffer as background, and with an OD cut-off of 0.2 for positive samples. Anti-CCP antibody status was analysed using the CCP2 kit (Eurodiagnostica, Malmo, Sweden), according to the manufacturer's instructions.

[2] = system: anti-CEP-1 antibodies in anti-CEP-1 positive RA sera; assay: Liquid phase inhibition of binding to CEP-1-coated plates; set-up: species or system human; details: six anti-CEP-1 positive RA sera pre-incubated with 0, 1, 10 and 100 μg/ml peptide
Procedure: Inhibition experiments were performed in liquid phase on six anti-CEP-1 positive RA serum samples or on solid phase using serum from nine double positive (anti-CEP-1 and CCP positive) RA patients. Sera were either pre-incubated for 2 hours in RIA-buffer containing increasing concentrations (0, 1, 10 and 100 μg/ml) of CEP-1, control peptide 1D, peptide 4, peptide 7, peptide 9 or peptide 11, or pre-absorbed on plates coated with CEP-1, carbonate buffer alone or pre-absorbed on commercial CCP2 plates. To eliminate antigen-antibody complexes, the liquid phase mixtures were centrifuged at 13 000 rpm, for 15 minutes, before the supernatants were transferred to CEP-1-coated plates and assessed as described above Inhibition of binding to CEP-1, for serum samples pre-absorbed to CCP, was calculated in relation to the maximum inhibition, which by definition was set to 100% for samples pre-incubated with CEP-1.

[3] = system: serum IgG of RA patients and healthy controls (US cohort); assay: anti-CEP-1 antibody ELISA, independent US cohort; format: binding, human; details: cut-off 98th percentile of controls
From the text: as §1
as §2, with “ELISA on the US serum samples were performed in a similar manner, but with 2% BSA in carbonate buffer as background, and with an OD cut-off of 0.2 for positive samples.” left out, “instructions. […]” for “instructions.”

For “ciqvvgddltvtnpk-X-iakac (CIQVVGDDLTVTNPK[Cit]IAKAC; disulfide 1-21 (inferred); listed as Homo sapiens) [Peptide 10, human α-enolase aa 313-331]”, the “% positive, RA (n = 102)” value [1] was 6% and the “% positive, Healthy controls (n = 92)” value [1] was 1%.
For “cvdlftskglf-X-aavpsgc (CVDLFTSKGLF[Cit]AAVPSGC; disulfide 1-19 (inferred); listed as Homo sapiens) [Peptide 2, human α-enolase aa 22-38]”, the “% positive, RA (n = 102)” value [1] was 10%, the “% positive, Disease controls (n = 110)” value [1] was 0% and the “% positive, Healthy controls (n = 92)” value [1] was 2%.
In the case of “ckiha-X-eifds-R-gnptvec (CKIHA[Cit]EIFDSRGNPTVEC; disulfide 1-19 (inferred); listed as Homo sapiens) [Peptide 1C]”, the “% positive, RA (n = 102)” value [1] is reported as 20% and the “sensitivity for RA” value [1] is reported as “about 20%”.
In the case of “cakynqll-X-ieeelgskac (CAKYNQLL[Cit]IEEELGSKAC; disulfide 1-19 (inferred); listed as Homo sapiens) [Peptide 8, human α-enolase aa 405-421]”, the “% positive, RA (n = 102)” value [1] is reported as 7%, the “% positive, Disease controls (n = 110)” value [1] is reported as 4% and the “% positive, Healthy controls (n = 92)” value [1] is reported as 0%.
“cnpk-X-iakavnekscncllc (CNPK[Cit]IAKAVNEKSCNCLLC; also: cyclic via terminal Cys, bond and pairing not given here; listed as Homo sapiens) [Peptide 11, human α-enolase aa 324-341]” was tested, and the “% positive, RA (n = 102)” value [1] was 18%, the “% positive, Healthy controls (n = 92)” value [1] was 0% and the “inhibition of antibody binding to CEP-1-coated plates” value (shortened to “inhibition of antibody binding”) [2] was “no inhibition”. The “inhibition of antibody binding” value ([2]; listed as peptide 11) was “did not result in decreased antibody binding”.
“ckiha-R-eifds-R-gnptvec (CKIHAREIFDSRGNPTVEC; listed as Homo sapiens) [Peptide 1D, arginine containing control peptide, aa 5-21]” was tested, and the “IgG antibody levels / reactivity (OD450) in RA sera” value (from here on “IgG antibody levels / reactivity”) [1] was “low IgG-levels; also recorded: low reactivity”, the “IgG antibody levels / reactivity” value ([1]; listed as arginine-containing control peptide) was “low degree of reactivity” and the “IgG antibody levels / reactivity” value ([1]; listed as peptide 1D) was “low IgG-levels”. The “sensitivity for RA” value [1] was “about 4.9%”, the “% positive, Disease controls (n = 110)” value [1] was 2% and the “% positive, Healthy controls (n = 92)” value [1] was 3%. For the same substance, the “inhibition of antibody binding” value [2] was “did not result in decreased antibody binding; also recorded: no inhibition”.
“cnf-X-eam-X-igaevyhnlknc (CNF[Cit]EAM[Cit]IGAEVYHNLKNC; disulfide 1-20 (inferred); listed as Homo sapiens) [Peptide 5, human α-enolase aa 177-194]” was tested, and the “% positive, RA (n = 102)” value [1] was 11%, the “% positive, Disease controls (n = 110)” value [1] was 4% and the “% positive, Healthy controls (n = 92)” value [1] was 3%.
For “cekgvply-X-hiadlagnsec (CEKGVPLY[Cit]HIADLAGNSEC; disulfide 1-20 (inferred); listed as Homo sapiens) [Peptide 4, human α-enolase aa 125-142]”, the “% positive, RA (n = 102)” value [1] was 16%, the “% positive, Disease controls (n = 110)” value [1] was 2% and the “% positive, Healthy controls (n = 92)” value [1] was 2%. The “inhibition of antibody binding” value [2] was “no inhibition” and the “inhibition of antibody binding” value ([2]; listed as peptide 4) was “did not result in decreased antibody binding”.
In the case of “ckfag-X-nf-X-nplakc (CKFAG[Cit]NF[Cit]NPLAKC; disulfide 1-15 (inferred); listed as Homo sapiens) [Peptide 9, human α-enolase aa 422-434]”, the “% positive, RA (n = 102)” value [1] is reported as 15%, the “% positive, Disease controls (n = 110)” value [1] is reported as 1% and the “% positive, Healthy controls (n = 92)” value [1] is reported as 1%. For the same substance, the “inhibition of antibody binding” value [2] was “no inhibition” and the “inhibition of antibody binding” value ([2]; listed as peptide 9) was “did not result in decreased antibody binding”.
With “ckiig-X-eilds-X-gnptvec (CKIIG[Cit]EILDS[Cit]GNPTVEC; disulfide 1-19 (inferred); listed as Homo sapiens) [1A P. gingivalis, P. gingivalis enolase version of CEP-1, X = citrulline]” the “% positive, RA (n = 102)” value [1] was 34% and the “% healthy controls positive, US cohort (n=82)” value [3] was 2%.
“cyealel-X-dndkt-X-ymgkgvskc (CYEALEL[Cit]DNDKT[Cit]YMGKGVSKC; disulfide 1-23 (inferred); listed as Homo sapiens) [Peptide 3, human α-enolase aa 44-64]” was tested, and the “% positive, RA (n = 102)” value [1] was 15%, the “% positive, Disease controls (n = 110)” value [1] was 2% and the “% positive, Healthy controls (n = 92)” value [1] was 0%.
For “ckiha-R-eifds-X-gnptvec (CKIHAREIFDS[Cit]GNPTVEC; disulfide 1-19 (inferred); listed as Homo sapiens) [Peptide 1B]”, the “IgG antibody levels / reactivity” value [1] was “higher antibody levels”, the “% positive, RA (n = 102)” value [1] was 40% and the “sensitivity for RA” value [1] was “higher sensitivity”.

From patent US9334487B2, “Methods for diagnosing rheumatoid arthritis” (Imperial Innovations Limited, priority 2007, dated 2016)
